# Laboratory results published in patent US9969694B2, “N-(arylalkyl)-N′-pyrazolyl-urea, thiourea, guanidine and cyanoguanidine compounds as TrkA kinase inhibitors” (Array BioPharma Inc., priority 2012, dated 2018).
# Assays:
# Test in all cases: Off-Target Kinase Profiling
# Type in all cases: biochemical
# Details in all cases: 10 μM; ATP near Km
# [1] = molecular target: T1, EphA8 (Homo sapiens, UniProt P29322)
# T1 construct: purchased Millipore, Inc. (KinaseProfiler service)
# In short: (§1)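 Each kinase was run with ATP at roughly its Km. Test compound was added at a fixed 10 μM and assayed twice, and activity was expressed relative to control as POC.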
# [2] = molecular target: T2, MARK2 (Homo sapiens, UniProt Q7KZI7)
# T2 construct: purchased Millipore, Inc. (KinaseProfiler service)
# In short: as §1
# [3] = molecular target: T3, AKT3 (Homo sapiens, UniProt Q9Y243)
# T3 construct: purchased Millipore (KinaseProfiler service)
# In short: as §1
# [4] = molecular target: T4, Yes (Homo sapiens, UniProt P07947)
# T4 construct: purchased Millipore, Inc. (KinaseProfiler service)
# In short: as §1
# [5] = molecular target: T5, DAPK3 (Homo sapiens, UniProt O43293)
# T5 construct: purchased Millipore, Inc. (KinaseProfiler service)
# In short: as §1
# [6] = molecular target: T6, PKCepsilon (Homo sapiens, UniProt Q02156)
# T6 construct: purchased Millipore, Inc. (KinaseProfiler service)
# T6 sequence (Q02156 whole entry): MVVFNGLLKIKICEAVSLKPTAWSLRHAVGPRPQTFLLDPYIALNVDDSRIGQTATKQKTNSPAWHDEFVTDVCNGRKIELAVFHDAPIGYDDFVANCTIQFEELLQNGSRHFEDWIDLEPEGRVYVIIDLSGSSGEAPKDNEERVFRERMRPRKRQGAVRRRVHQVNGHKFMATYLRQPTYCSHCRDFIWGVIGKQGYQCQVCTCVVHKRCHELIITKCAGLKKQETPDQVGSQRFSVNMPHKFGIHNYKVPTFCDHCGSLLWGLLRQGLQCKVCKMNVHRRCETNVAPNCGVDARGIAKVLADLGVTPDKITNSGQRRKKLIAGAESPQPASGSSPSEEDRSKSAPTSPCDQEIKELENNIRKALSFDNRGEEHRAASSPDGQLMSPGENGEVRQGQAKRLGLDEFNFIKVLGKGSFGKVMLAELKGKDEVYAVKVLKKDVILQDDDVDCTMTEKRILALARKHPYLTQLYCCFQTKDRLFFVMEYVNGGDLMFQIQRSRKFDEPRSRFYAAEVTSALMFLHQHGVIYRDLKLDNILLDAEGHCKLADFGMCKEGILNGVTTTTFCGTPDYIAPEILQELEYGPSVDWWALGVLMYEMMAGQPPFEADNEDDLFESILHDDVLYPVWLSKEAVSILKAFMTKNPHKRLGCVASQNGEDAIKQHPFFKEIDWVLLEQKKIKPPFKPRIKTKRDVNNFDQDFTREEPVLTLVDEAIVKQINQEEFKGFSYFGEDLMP
# In short: as §1
# [7] = molecular target: T7, NEK11 (Homo sapiens, UniProt Q8NG66)
# T7 construct: purchased Millipore, Inc. (KinaseProfiler service)
# In short: as §1
# [8] = molecular target: T8, MAPKAP-K5 (Homo sapiens, UniProt Q8IW41)
# T8 construct: purchased Millipore, Inc. (KinaseProfiler service)
# In short: as §1
# [9] = molecular target: T9, PhKgamma2 (Homo sapiens, UniProt P15735)
# T9 construct: purchased Millipore, Inc. (KinaseProfiler service)
# In short: as §1
# [10] = molecular target: T10, NEK6 (Homo sapiens, UniProt Q9HC98)
# T10 construct: purchased Millipore, Inc. (KinaseProfiler service)
# T10 sequence (Q9HC98 whole entry): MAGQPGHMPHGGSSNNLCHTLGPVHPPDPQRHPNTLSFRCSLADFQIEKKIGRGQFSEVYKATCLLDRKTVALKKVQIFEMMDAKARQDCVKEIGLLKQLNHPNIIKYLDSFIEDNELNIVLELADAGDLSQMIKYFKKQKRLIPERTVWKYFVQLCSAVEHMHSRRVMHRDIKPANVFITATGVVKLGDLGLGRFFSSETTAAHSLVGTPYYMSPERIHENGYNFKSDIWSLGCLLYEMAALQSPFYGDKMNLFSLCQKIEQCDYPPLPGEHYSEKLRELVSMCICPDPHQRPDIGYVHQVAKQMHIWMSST
# In short: as §1
# [11] = molecular target: T11, AKT2 (Homo sapiens, UniProt P31751)
# T11 construct: purchased Millipore (KinaseProfiler service)
# In short: as §1
# [12] = molecular target: T12, CLK2 (Homo sapiens, UniProt P49760)
# T12 construct: purchased Millipore, Inc. (KinaseProfiler service)
# In short: as §1
# [13] = molecular target: T13, PDGFRbeta (Homo sapiens, UniProt P09619)
# T13 construct: purchased Millipore, Inc. (KinaseProfiler service)
# In short: as §1
# [14] = molecular target: T14, Fgr (Homo sapiens, UniProt P09769)
# T14 construct: purchased Millipore, Inc. (KinaseProfiler service)
# In short: as §1
# [15] = molecular target: T15, IGF-1R Activated (Homo sapiens, UniProt P08069)
# T15 construct: purchased Millipore, Inc. (KinaseProfiler service)
# In short: as §1
# [16] = molecular target: T16, PKCtheta (Homo sapiens, UniProt Q04759)
# T16 construct: purchased Millipore, Inc. (KinaseProfiler service)
# T16 sequence (Q04759 whole entry): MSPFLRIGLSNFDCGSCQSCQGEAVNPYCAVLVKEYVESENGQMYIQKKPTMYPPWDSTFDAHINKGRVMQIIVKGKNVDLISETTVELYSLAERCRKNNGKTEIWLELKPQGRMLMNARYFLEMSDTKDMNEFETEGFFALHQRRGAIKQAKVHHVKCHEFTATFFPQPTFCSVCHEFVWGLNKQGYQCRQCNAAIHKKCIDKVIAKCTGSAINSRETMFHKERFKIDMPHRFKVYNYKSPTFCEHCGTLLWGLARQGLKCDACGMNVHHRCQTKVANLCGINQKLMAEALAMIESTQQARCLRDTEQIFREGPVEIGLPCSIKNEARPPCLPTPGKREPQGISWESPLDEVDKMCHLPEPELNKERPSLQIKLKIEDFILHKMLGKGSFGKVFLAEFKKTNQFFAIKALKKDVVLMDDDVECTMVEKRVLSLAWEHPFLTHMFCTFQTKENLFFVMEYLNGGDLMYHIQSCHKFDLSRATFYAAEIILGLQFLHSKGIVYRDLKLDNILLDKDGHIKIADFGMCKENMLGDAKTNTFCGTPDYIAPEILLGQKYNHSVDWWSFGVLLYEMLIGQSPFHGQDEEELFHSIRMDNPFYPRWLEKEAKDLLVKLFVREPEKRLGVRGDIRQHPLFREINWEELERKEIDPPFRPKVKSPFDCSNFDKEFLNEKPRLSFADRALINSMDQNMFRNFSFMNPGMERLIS
# In short: as §1
# [17] = molecular target: T17, GSK3beta (Homo sapiens, UniProt P49841)
# T17 construct: purchased Millipore, Inc. (KinaseProfiler service)
# In short: as §1
# [18] = molecular target: T18, CAMK1 (Homo sapiens, UniProt Q14012)
# T18 construct: purchased Millipore (KinaseProfiler service)
# In short: as §1
# [19] = molecular target: T19, MST2 (Homo sapiens, UniProt Q13188)
# T19 construct: purchased Millipore, Inc. (KinaseProfiler service)
# In short: as §1
# [20] = system: CK1_y
# In short: as §1
# [21] = molecular target: T20, MELK (Homo sapiens, UniProt Q14680)
# T20 construct: purchased Millipore, Inc. (KinaseProfiler service)
# T20 sequence (Q14680 whole entry): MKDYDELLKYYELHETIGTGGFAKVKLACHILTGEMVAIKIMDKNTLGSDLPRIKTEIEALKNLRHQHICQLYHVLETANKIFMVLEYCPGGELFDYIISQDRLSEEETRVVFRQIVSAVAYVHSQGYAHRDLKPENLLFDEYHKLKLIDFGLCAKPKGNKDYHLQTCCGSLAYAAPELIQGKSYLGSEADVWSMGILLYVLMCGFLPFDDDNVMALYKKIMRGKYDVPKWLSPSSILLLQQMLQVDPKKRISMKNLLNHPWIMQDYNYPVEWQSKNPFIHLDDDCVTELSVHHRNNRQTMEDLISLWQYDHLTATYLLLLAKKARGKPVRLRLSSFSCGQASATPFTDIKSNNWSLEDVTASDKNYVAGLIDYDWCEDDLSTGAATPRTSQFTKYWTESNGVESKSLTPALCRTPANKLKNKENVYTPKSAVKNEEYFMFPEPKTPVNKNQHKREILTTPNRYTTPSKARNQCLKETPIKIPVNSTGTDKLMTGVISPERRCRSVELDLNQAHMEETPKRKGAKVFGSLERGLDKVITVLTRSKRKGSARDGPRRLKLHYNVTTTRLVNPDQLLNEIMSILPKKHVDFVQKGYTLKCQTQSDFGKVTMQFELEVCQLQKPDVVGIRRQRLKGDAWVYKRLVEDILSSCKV
# In short: as §1
# [22] = molecular target: T21, DAPK1 (Homo sapiens, UniProt P53355)
# T21 construct: purchased Millipore, Inc. (KinaseProfiler service)
# In short: as §1
# [23] = molecular target: T22, mTOR (Homo sapiens, UniProt P42345)
# T22 construct: purchased Millipore, Inc. (KinaseProfiler service)
# In short: as §1
# [24] = molecular target: T23, EphA3 (Homo sapiens, UniProt P29320)
# T23 construct: purchased Millipore, Inc. (KinaseProfiler service)
# T23 sequence (P29320 21-983): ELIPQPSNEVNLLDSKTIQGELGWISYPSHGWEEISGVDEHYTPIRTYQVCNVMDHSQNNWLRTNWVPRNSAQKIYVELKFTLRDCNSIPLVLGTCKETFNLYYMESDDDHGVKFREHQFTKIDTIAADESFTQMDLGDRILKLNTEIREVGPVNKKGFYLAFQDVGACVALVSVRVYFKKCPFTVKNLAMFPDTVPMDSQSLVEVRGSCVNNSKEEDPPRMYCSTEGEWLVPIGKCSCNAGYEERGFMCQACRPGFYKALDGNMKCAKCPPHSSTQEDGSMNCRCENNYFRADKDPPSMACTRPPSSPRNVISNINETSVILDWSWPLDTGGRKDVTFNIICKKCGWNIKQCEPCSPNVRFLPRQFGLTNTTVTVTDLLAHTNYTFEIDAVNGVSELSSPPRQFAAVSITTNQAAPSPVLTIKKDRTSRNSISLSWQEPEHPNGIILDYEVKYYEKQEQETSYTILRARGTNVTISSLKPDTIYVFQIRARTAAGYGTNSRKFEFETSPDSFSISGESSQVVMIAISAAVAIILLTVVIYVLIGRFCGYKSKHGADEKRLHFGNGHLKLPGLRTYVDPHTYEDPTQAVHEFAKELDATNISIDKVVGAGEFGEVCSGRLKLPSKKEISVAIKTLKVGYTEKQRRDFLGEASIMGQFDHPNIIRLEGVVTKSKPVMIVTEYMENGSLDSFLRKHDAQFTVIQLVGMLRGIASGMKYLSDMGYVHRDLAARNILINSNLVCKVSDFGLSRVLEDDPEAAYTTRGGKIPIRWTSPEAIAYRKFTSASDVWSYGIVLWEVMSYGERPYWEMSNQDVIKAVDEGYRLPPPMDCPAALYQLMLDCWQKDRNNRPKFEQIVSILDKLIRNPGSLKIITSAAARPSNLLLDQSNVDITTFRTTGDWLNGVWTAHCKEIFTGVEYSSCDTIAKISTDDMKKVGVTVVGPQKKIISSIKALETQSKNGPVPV
# In short: as §1
# [25] = molecular target: T24, CK1gamma2 (Homo sapiens, UniProt P78368)
# T24 construct: purchased Millipore, Inc. (KinaseProfiler service)
# In short: as §1
# [26] = molecular target: T25, PKAC-alpha (Homo sapiens, UniProt P17612)
# T25 construct: purchased Millipore, Inc. (KinaseProfiler service)
# In short: as §1
# [27] = molecular target: T26, DRAK1 (Homo sapiens, UniProt Q9UEE5)
# T26 construct: purchased Millipore, Inc. (KinaseProfiler service)
# T26 sequence (Q9UEE5 whole entry): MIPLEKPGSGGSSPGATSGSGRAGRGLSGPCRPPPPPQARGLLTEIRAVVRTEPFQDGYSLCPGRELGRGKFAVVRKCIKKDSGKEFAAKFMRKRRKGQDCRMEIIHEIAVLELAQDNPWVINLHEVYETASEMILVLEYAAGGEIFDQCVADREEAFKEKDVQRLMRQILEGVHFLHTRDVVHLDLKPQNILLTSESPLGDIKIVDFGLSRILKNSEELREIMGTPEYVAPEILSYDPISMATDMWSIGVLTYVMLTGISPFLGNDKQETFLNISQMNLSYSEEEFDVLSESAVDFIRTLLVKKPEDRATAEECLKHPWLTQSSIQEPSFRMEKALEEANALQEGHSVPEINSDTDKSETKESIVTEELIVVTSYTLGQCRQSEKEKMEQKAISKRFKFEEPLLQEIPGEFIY
# In short: as §1
# [28] = molecular target: T27, PKCalpha (Homo sapiens, UniProt P17252)
# T27 construct: purchased Millipore, Inc. (KinaseProfiler service)
# In short: as §1
# [29] = molecular target: T28, FGFR2 (Homo sapiens, UniProt P21802)
# T28 construct: purchased Millipore, Inc. (KinaseProfiler service)
# In short: as §1
# [30] = molecular target: T29, Hck (Homo sapiens, UniProt P08631)
# T29 construct: purchased Millipore, Inc. (KinaseProfiler service)
# T29 sequence (P08631 whole entry): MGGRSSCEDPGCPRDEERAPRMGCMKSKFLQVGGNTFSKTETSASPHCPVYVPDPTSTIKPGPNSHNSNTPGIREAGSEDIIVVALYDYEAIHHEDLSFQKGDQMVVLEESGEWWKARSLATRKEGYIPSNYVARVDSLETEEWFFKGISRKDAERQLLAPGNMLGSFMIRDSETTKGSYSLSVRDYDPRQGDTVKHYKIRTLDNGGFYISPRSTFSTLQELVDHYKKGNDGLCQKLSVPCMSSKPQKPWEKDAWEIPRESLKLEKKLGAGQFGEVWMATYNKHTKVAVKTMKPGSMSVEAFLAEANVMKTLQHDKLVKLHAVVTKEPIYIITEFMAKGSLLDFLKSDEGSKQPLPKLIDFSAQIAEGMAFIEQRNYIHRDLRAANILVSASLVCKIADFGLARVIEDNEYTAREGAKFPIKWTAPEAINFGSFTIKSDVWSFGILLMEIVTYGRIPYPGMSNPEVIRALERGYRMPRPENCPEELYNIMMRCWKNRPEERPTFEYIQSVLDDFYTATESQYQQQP
# In short: as §1
# [31] = molecular target: T30, BLK_m (Mus musculus, UniProt P16277)
# T30 construct: purchased Millipore (KinaseProfiler service)
# In short: as §1
# [32] = molecular target: T31, STK33 (Homo sapiens, UniProt Q9BYT3)
# T31 construct: purchased Millipore, Inc. (KinaseProfiler service)
# In short: as §1
# [33] = molecular target: T32, EGFR (Homo sapiens, UniProt P00533)
# T32 construct: purchased Millipore, Inc. (KinaseProfiler service)
# In short: as §1
# [34] = molecular target: T33, PTK5 (Homo sapiens, UniProt P42685)
# T33 construct: purchased Millipore, Inc. (KinaseProfiler service)
# In short: as §1
# [35] = molecular target: T34, DCAMKL2 (Homo sapiens, UniProt Q8N568)
# T34 construct: purchased Millipore, Inc. (KinaseProfiler service)
# In short: as §1
# [36] = molecular target: T35, Rsk3 (Homo sapiens, UniProt Q15349)
# T35 construct: purchased Millipore, Inc. (KinaseProfiler service)
# T35 sequence (Q15349 whole entry): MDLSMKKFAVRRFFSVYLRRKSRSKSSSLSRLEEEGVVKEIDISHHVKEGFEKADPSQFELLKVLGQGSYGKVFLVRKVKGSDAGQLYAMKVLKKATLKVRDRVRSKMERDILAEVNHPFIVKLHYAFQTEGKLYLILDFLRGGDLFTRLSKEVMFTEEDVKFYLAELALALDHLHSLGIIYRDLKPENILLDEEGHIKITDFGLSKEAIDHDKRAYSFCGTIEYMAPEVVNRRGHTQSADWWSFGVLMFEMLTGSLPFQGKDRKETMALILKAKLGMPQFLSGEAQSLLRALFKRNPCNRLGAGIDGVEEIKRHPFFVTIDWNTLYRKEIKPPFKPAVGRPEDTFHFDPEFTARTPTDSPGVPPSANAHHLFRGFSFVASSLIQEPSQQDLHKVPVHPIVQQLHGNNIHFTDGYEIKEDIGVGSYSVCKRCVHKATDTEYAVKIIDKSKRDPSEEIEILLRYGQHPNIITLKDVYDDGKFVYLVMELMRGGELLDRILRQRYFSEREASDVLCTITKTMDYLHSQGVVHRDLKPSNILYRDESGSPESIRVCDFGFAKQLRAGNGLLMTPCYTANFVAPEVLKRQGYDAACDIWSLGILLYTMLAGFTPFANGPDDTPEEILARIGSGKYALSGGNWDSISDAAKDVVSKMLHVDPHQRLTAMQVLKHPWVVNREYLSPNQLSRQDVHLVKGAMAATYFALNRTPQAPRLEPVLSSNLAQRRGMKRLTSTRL
# In short: as §1
# [37] = molecular target: T36, IRAK1 (Homo sapiens, UniProt P51617)
# T36 construct: purchased Millipore, Inc. (KinaseProfiler service)
# In short: as §1
# [38] = molecular target: T37, LOK (Homo sapiens, UniProt O94804)
# T37 construct: purchased Millipore, Inc. (KinaseProfiler service)
# In short: as §1
# [39] = molecular target: T38, FAK (Homo sapiens, UniProt Q05397)
# T38 construct: purchased Millipore, Inc. (KinaseProfiler service)
# In short: as §1
# [40] = molecular target: T39, MRCKalpha (Homo sapiens, UniProt Q5VT25)
# T39 construct: purchased Millipore, Inc. (KinaseProfiler service)
# In short: as §1
# [41] = molecular target: T40, mTOR/FKBP12 (Homo sapiens, UniProt P42345)
# T40 construct: purchased Millipore, Inc. (KinaseProfiler service)
# In short: as §1
compound,measurement,setting,value
"COCc1ccc(C2CCC2)c(CNC(=O)Nc2c(C)c(-c3cnc(C)nc3)nn2-c2ccccc2)c1 [Example 10, 1-(2-cyclobutyl-5-(methoxymethyl)benzyl)-3-(4-methyl-3-(2-methylpyrimidin-5-yl)-1-phenyl-1H-pyrazol-5-yl)urea]",Avg POC EphA8,[1],97.5 POC
same,Avg POC MARK2,[2],98.5 POC
same,Avg POC AKT3,[3],102.5 POC
same,Avg POC Yes,[4],88.5 POC
same,Avg POC DAPK3,[5],93.5 POC
same,Avg POC PKCepsilon,[6],83.5 POC
same,Avg POC NEK11,[7],102 POC
same,Avg POC MAPKAP-K5,[8],92 POC
same,Avg POC PhKgamma2,[9],118 POC
same,Avg POC NEK6,[10],92.5 POC
same,Avg POC AKT2,[11],142 POC
same,Avg POC CLK2,[12],97.5 POC
same,Avg POC PDGFRbeta,[13],106 POC
same,Avg POC Fgr,[14],97 POC
same,Avg POC IGF-1R Activated,[15],93.5 POC
same,Avg POC PKCtheta,[16],94 POC
same,Avg POC GSK3beta,[17],115 POC
same,Avg POC CAMK1,[18],92 POC
same,Avg POC MST2,[19],97.5 POC
same,Avg POC CK1_y,[20],97 POC
same,Avg POC MELK,[21],83.5 POC
same,Avg POC DAPK1,[22],98 POC
same,Avg POC mTOR,[23],75 POC
same,Avg POC EphA3,[24],119 POC
same,Avg POC CK1gamma2,[25],69.5 POC
same,Avg POC PKAC-alpha,[26],132 POC
same,Avg POC DRAK1,[27],92.5 POC
same,Avg POC PKCalpha,[28],100.5 POC
same,Avg POC FGFR2,[29],103.5 POC
same,Avg POC Hck,[30],67 POC
same,Avg POC BLK_m,[31],97.5 POC
same,Avg POC STK33,[32],98 POC
same,Avg POC EGFR,[33],107.5 POC
same,Avg POC PTK5,[34],87.5 POC
same,Avg POC DCAMKL2,[35],96.5 POC
same,Avg POC Rsk3,[36],101 POC
same,Avg POC IRAK1,[37],101 POC
same,Avg POC LOK,[38],101 POC
same,Avg POC FAK,[39],96.5 POC
same,Avg POC MRCKalpha,[40],122 POC
same,Avg POC mTOR/FKBP12,[41],97.5 POC
"COCc1ccc(C(F)(F)F)c(CNC(=O)Nc2c(C)c(-c3cnn(C)c3)nn2-c2ccccc2)c1 [Example 33, 1-(1′,4-dimethyl-1-phenyl-1H,1′H-[3,4′-bipyrazol]-5-yl)-3-(5-(methoxymethyl)-2-(trifluoromethyl)benzyl)urea]",Avg POC EphA8,[1],123 POC
same,Avg POC MARK2,[2],103.5 POC
same,Avg POC AKT3,[3],124 POC
same,Avg POC Yes,[4],113 POC
same,Avg POC DAPK3,[5],113 POC
same,Avg POC PKCepsilon,[6],92 POC
same,Avg POC NEK11,[7],108 POC
same,Avg POC MAPKAP-K5,[8],97.5 POC
same,Avg POC PhKgamma2,[9],116 POC
same,Avg POC NEK6,[10],115.5 POC
same,Avg POC AKT2,[11],199 POC
same,Avg POC CLK2,[12],131.5 POC
same,Avg POC PDGFRbeta,[13],166.5 POC
same,Avg POC Fgr,[14],121 POC
same,Avg POC IGF-1R Activated,[15],86.5 POC
same,Avg POC PKCtheta,[16],112.5 POC
same,Avg POC GSK3beta,[17],136.5 POC
same,Avg POC CAMK1,[18],111.5 POC
same,Avg POC MST2,[19],98 POC
same,Avg POC CK1_y,[20],97.5 POC
same,Avg POC MELK,[21],114 POC
same,Avg POC DAPK1,[22],141.5 POC
same,Avg POC mTOR,[23],99 POC
same,Avg POC EphA3,[24],116.5 POC
same,Avg POC CK1gamma2,[25],113.5 POC
same,Avg POC PKAC-alpha,[26],139.5 POC
same,Avg POC DRAK1,[27],141.5 POC
same,Avg POC PKCalpha,[28],104.5 POC
same,Avg POC FGFR2,[29],109.5 POC
same,Avg POC Hck,[30],140 POC
same,Avg POC BLK_m,[31],119 POC
same,Avg POC STK33,[32],104.5 POC
same,Avg POC EGFR,[33],116.5 POC
same,Avg POC PTK5,[34],92.5 POC
same,Avg POC DCAMKL2,[35],254.5 POC
same,Avg POC Rsk3,[36],103 POC
same,Avg POC IRAK1,[37],113 POC
same,Avg POC LOK,[38],93.5 POC
same,Avg POC FAK,[39],99 POC
same,Avg POC MRCKalpha,[40],147 POC
same,Avg POC mTOR/FKBP12,[41],109.5 POC
